Measurements taken from patent publication US9840532B2, “5′-substituted nucleoside compounds” (Eli Lilly and Company, priority 2015, dated 2017).

Columns and labels:
Will-2 (DLBCL) cells = test: Xenograft tumor model, DLBCL (WILL-2); assay type: in vivo, mouse; details: oral gavage
Protocol: (§1) The purpose of this assay is to measure in a mouse model of cancer the reduction in tumor volume in response to test compound administration.
(§2) Grow A375 (melanoma) cells in DMEM/High glucose (HYCLONE™ cat. # SH30022) with 10% HI FBS (GIBCO® cat. #10082-147). Grow Will-2 (DLBCL) cells in RPMI 1640 with L-glutamine and 20% heat inactivated FBS. Grow Namalwa (Burkitt's lymphoma) cells (ATCC) in RPMI 1640 media supplemented with L-glutamine, 25 mM HEPES (GIBCO® 22400-089), 1 mM sodium pyruvate and 7.5% FBS. Grow Molt 4 cells in RPMI 1640 with L-glutamine, 25 mM HEPES [GIBCO 22400-089], 1 mM sodium pyruvate, and 10% FBS. Harvest cells and inject subcutaneously onto the rear flank of nude mice (A375: 5×10^6 cells/animal, mixed 1:1 with MATRIGEL®; Will-2; 1×10^7 cells/animal; Namalwa: 2×10^6 cells/animal; Molt 4: : 5×10^6 cells/animal, mixed 1:1 with MATRIGEL®). When tumors are established (approximately 200 mm^3, 7-21 days after implant), randomize animals, and group them into control and test groups. Formulate the test compound in 1% HEC/0.25% TWEEN®-80/0.05% Antifoam. Administer test compound and vehicles by oral gavage. Determine tumor response by tumor volume measurement (caliper) performed twice a week during the course of treatment and report as the percent inhibition of tumor volume versus the vehicle control group.

[1] = system: Namalwa (Burkitt's lymphoma) cells; test: Xenograft tumor model, lymphoma (Namalwa); assay type: in vivo, mouse; details: oral gavage
Protocol: as §1, §2

GDM-1 cells = test: Combination with BCL2 inhibitor ABT-199 in AML cell lines, 4-day cell proliferation assay; assay type: cell-based; details: Homo sapiens, 96 h; GDM-1, treatment duration 4 Days; single agent or combination; read-out: Absolute IC50 (cell proliferation)
Protocol: On day 1, plate GDM-1 [ATCC®, maintained throughout in GDM-1 assay medium: RPMI-1640 medium/20% heat-inactivated FBS (GIBCO®)] and EOL-1 cells [ATCC®, maintained throughout in EOL-1 assay medium: RPMI-1640 medium/10% heat-inactivated FBS (GIBCO®)] at 4000 and 10000 cells/well (100 μL/well) respectively, in a 96-well assay plate (BD FALCON® 35-3219). Incubate the plates in a 37° C. incubator (5% CO2) for 18-24 hr. On day 2, prepare 2.0% DMSO with assay medium (as indicated above or RPMI-1640/20% heat-inactivated FBS and RPMI-1640/10% FBS for GDM-1 and EOL-1, respectively) and add 100 μL to columns 3-12 in a preparation plate. Prepare test compounds ABT-199 at 10 μM in 2% DMSO and PRMT5 inhibitor Example 1 at 25 μM in 2% DMSO and dispense into wells A2 and B2, respectively, followed by serial dilution (1:3, 10 points) to wells A11 and B11, respectively. For combinational treatment, serially dilute test compound examples at 1:2 in assay medium (as indicated above or RPMI-1640/20% heat-inactivated FBS and RPMI-1640/10% FBS for GDM-1 and EOL-1, respectively) in wells C2-C11 (0.1 μM) to H2-H11, then serially dilute test compound ABT-199 1:3 from C2-H2 (1.0 μM) to C11-H11. […] Incubate plates for 10-15 min at room temperature before reading. Measure luminescence using the PERKIN-ELMER® ENVISION® Multi-Label Reader. […]

A375 (melanoma) cells = test: Xenograft tumor model, melanoma (A375); assay type: in vivo, mouse; details: 4-day-on and 3-day-off schedule for 26 days, oral gavage
Protocol: as §1, §2

Structure (SMILES): Nc1ncnc2c1ccn2[C@@H]1O[C@H]([C@H](O)c2ccc(Cl)cc2)[C@@H](O)[C@H]1O [Example 1, (2R,3R,4S,5R)-2-(4-Aminopyrrolo[2,3-d]pyrimidin-7-yl)-5-[(R)-(4-chlorophenyl)-hydroxy-methyl]tetrahydrofuran-3,4-diol]
- tumor regression (Will-2 (DLBCL) cells; 2 mg/kg BID for 14 days): 50%
- percent inhibition of tumor volume versus vehicle (Will-2 (DLBCL) cells; 5 mg/kg QD for 14 days): 74%
- percent inhibition of tumor volume versus vehicle ([1]; 2 mg/kg BID for 14 days): 74%
- percent inhibition of tumor volume versus vehicle ([1]; 5 mg/kg QD for 14 days): 61%
- IC50 (GDM-1 cells): 0.224 µM
- percent inhibition of tumor volume versus vehicle (A375 (melanoma) cells; 10 mg/kg QD): 64%
- percent inhibition of tumor volume versus vehicle (A375 (melanoma) cells; 15 mg/kg): 71%
